Here are results for eight compounds from ChEMBL document CHEMBL6182858, “Dichloromethyl-Containing Derivatives from Streptomyces agglomeratus 5-2-6, a Soil Bacterium Isolated from the Qinghai-Tibet Plateau” (J Nat Prod, 2025).

This test deals with Bacillus thuringiensis. The test can be described thus: Antibacterial activity against Bacillus thuringiensis assessed as inhibition of bacterial growth by agar plate method. Type of test: functional, organism-based.
Turning to `CC[C@@H](O)/C(C)=C/[C@@H](O)c1cc(C(Cl)Cl)cc(=O)o1`, the Activity result is “Not active; Detectable Activity Not Observed”. Regarding `CC/C=C(\C)[C@@H](O)[C@@H](O)C1=CC(=O)/C(=C/C(Cl)Cl)O1`, the Activity entry is recorded as “Moderate_effect”. To `CC[C@@H](O)[C@](C)(O)/C=C/C=C\[C@H](O)C(Cl)Cl` belongs “Not active; Detectable Activity Not Observed”.

In the case of `CC[C@H](O)/C(C)=C/[C@@H](O)c1cc(C(Cl)Cl)cc(=O)o1`, the Activity result is “Not active; Detectable Activity Not Observed”.

As to `CC/C=C(\C)[C@@H](O)[C@@H](O)C1=CC(=O)/C(=C\C(Cl)Cl)O1`, the Activity result is given as “Moderate_effect”. `O=c1cc(C(Cl)Cl)cc(CO)o1`: the Activity entry was “Not active; Detectable Activity Not Observed”. For `CC[C@@H](O)[C@@](C)(O)/C=C/C=C\[C@H](O)C(Cl)Cl`, the Activity entry was “Not active; Detectable Activity Not Observed”. Turning to `CC/C=C(\C)[C@@H](O)[C@@H](O)c1cc(C(Cl)Cl)cc(=O)o1`, the Activity entry is “Not active; Detectable Activity Not Observed”.
